Measured values from EP0298064A2, “Birth control and diagnostic methods” (BIOCARB AB, priority 1987, dated 1989).

Key:
[1] = test system: blastocyst implantation in murine endometrial epithelium monolayers; assay: In vitro implantation - mouse model (blastocysts co-cultured with endometrial monolayer); type: cell-based; conditions: for Test impl/total (no. of blastocysts implanting/total no. of blastocysts added to the culture): test medium supplemented with 0.1 mM test oligosaccharide, control medium values stand in the neighbouring column
Protocol: In the mouse in vitro implantation system blastocyst implantation in murine endometrial epithelium monolayers was compared in 2 different media: the control medium (i.e. a medium which had supported more than 80% murine blastocyst formation from 2-cell embryos within 72 hours) and test medium (i.e. identical with the control medium except supplemented with 0.1 mM test oligosaccharide).
As control medium we used Earle's minimum essential medium (MEM) (Flow Lab), supplemented with penicillin-G 0.0075 g/l, streptomycin 0.075 g/l, glutamine 1 mM, fetal calf serum 5% and a vegetable protein source 2% (Ultrose-G, LKB, 2216-100). The final osmolality was adjusted to 285 mOsmol/kg and a pH of 7.4.
The mice were F1 hybrid B6D2F1/Bom (from the Laboratory of Animal Breeding and Research Center, Gl.Bomholdt Gȧrd, LTv., 8680 Ry, Denmark). Females aged 26 days and weighing 13-18 g and mature 6 months old males of previously proven fertility were used. They were housed in air-conditioned quarters with pelleted food and water available ad libitum and light between 7.30 a.m. and 7.30 p.m.
The female mice were superovulated with 5 I.U. FSH/LH (Antex, Leo Pharmaceuticals, Denmark) injected intraperitoneally at 9 a.m. day 1. 48 hours later (on day 3), ovulation was induced with 2.5 I.U. HCG. They were caged with males at 1 p.m. and left overnight. Mating was confirmed on the morning of day 4 by the presence of a vaginal plug.
Females were sacrificed at 9 a.m. on day 5. The oviducts were isolated and the 2-cell embryos flushed from the tubes using hand drawn glass pipettes.
Handling the 2-cells embryos outside the CO₂ incubator was carried out in the control medium supplemented with a HEPES buffer 20 mM (Flow Lab. 16-884-49).
After the oviducts were collected, the uterus of each mouse was isolated. The uterus was opened longitudinally and scraped with a rubber policeman on the uterine epithelial surface to col lect endometrial cells. These cells were handled in the HEPES buffered control medium as well. […]

[2] = test system: 667/9E9; assay: Inhibition by oligosaccharide of 667/9E9 staining of endometrial sections; type: binding, mice; conditions: day 4 and 5 sections; addition of 1 mM
Protocol: Fixed or unfixed sections were hydrated in Dulbecco's phosphate buffer pH 7.2, containing 0.1% Bovine serum albumin and 0.05% Tween 20. All antibodies and sera were diluted in the same buffer. The sections were incubated for 30 minutes in a 1/20 dilution of normal non immune goat serum […] to prevent nonspecific binding. Monoclonal antibody supernatants were diluted to either 1/10 or 1/20. The sections were overlayered with 50 µl of the primary antibody and incubated overnight in a humidified atmosphere at 4°C. Following this the sections were rinsed 4 times in the buffer and again incubated for 30 minutes in 1/20 normal goat serum. They were then stained with the second antibody, a fluorescein isothiocyanate (FITC) conjugated goat anti-mouse IgM at a final dilution of 1/80. The sections were finally rinsed in the buffer and mounted in 2.5% DABCO (Boehringer Mannheim, Germany) in 80% glycerol.

[3] = test system: implantation; assay: In vivo inhibition of implantation in the mouse (intrauterine injection); set-up: species or system NMRI mice
Protocol: In this study the effect of structure A, injected into the uteri of naturally mated and unstimulated mice, was investigated.
10 weeks old NMRI mice were caged with NMRI males of previously proven fertility.
At plug day 4 (at 1 p.m.) the mice were anaestezed using mebumal. The abdomen was opened through a midline incision and the genital tract was identified. A 6-0 selk sutur was placed around the vaginal top intraperitoneally. 5µl of Earle's balanced salt solution (EBS) supplemented with 5 mmol/l of structure A or unsupplemented were injected into the uterine horns. The test group contained 20 mice who were injected with supplemented media containing structure A, where as the controls (15 mice) were injected with EBS unsupplemented medium.

Row | Structure (SMILES) | inhibition of implantation of mouse embryos (in words) ([1]; oligosaccharide concentration of 0.1 mM) | Test impl/total (no. of blastocysts implanting/total no. of blastocysts added to the culture) [1] | inhibition of the staining of the endometrial sections by 667/9E9 [2] | inhibition of implantation in vivo (in words) ([3]; 5 mmol/l, 5µl into the uterine horns) | Impl/horn ([3]; 5µl EBS with 5 mmol/l injected into the uterine horns at plug day 4, 20 mice, controls 4.2)
1 | CC(=O)N[C@H]1[C@H](O[C@H]2[C@@H](O)[C@@H](CO)O[C@@H](O[C@H]3[C@H](O)[C@@H](O)C(O)O[C@@H]3CO)[C@@H]2O)O[C@H](CO)[C@@H](O)[C@@H]1O[C@@H]1O[C@H](CO)[C@H](O)[C@H](O)[C@H]1O[C@@H]1O[C@@H](C)[C@@H](O)[C@@H](O)[C@@H]1O (stereo partly drawn) [structure A] | inhibits the implantation of mouse embryos | 134/228 | could be inhibited | inhibits implantation in vivo in the mouse | 1.15
2 | CC(=O)N[C@H]1[C@H](O[C@H]2[C@@H](O)[C@@H](CO)O[C@@H](O[C@H]3[C@H](O)[C@@H](O)C(O)O[C@@H]3CO)[C@@H]2O)O[C@H](CO)[C@@H](O)[C@@H]1O[C@@H]1O[C@H](CO)[C@H](O)[C@H](O)[C@H]1O (stereo partly drawn) [structure B, reference compound] | – | 92/129 | – | – | –
